This is an account of results in ChEMBL document CHEMBL4665674, “Medicinal Chemistry Strategies for the Development of Kinase Inhibitors Targeting Point Mutations” (J Med Chem, 2020).

A short description of one test: cells. As to conditions: Homo sapiens, HN11, 72 h.
Test [1] addresses T1, Protein cereblon/Tyrosine-protein kinase BTK (Homo sapiens, UniProt Q06187+Q96SW2, C481S). The test is described as follows: Induction of CRBN-mediated degradation of BTK C481S mutant (unknown origin) expressed in B cells derived from X-linked agammaglobulinemia patient by immunoblot analysis. The test is classed as cell-based. As to conditions: b-cell. On the technique in general: A western blot detects proteins with antibodies after separation by electrophoresis.

Test [2] addresses T2, Protein cereblon/Tyrosine-protein kinase BTK (Homo sapiens, UniProt Q06187+Q96SW2). Nature of the test: Induction of CRBN-mediated degradation of wild type BTK (unknown origin) expressed in B cells derived from X-linked agammaglobulinemia patient by immunoblot analysis. The test is classed as cell-based. As to conditions: b-cell.
Test [3] has as its target T3, Tyrosine-protein kinase BTK (Homo sapiens, UniProt Q06187). The test is described as follows: Inhibition of BTK (unknown origin).
For test [4], the target named is T2, Protein cereblon/Tyrosine-protein kinase BTK. The test is described as follows: Induction of CRBN-mediated degradation of wild type human BTK expressed in human HeLa cells incubated for 4 days by Western blot analysis. The test is classed as cell-based.
The nature of test [5]: Induction of CRBN-mediated degradation of human BTK C481A mutant expressed in human HeLa cells incubated for 4 days by Western blot analysis. The note with it: 96 h. The test is classed as cell-based.
Test [6] can be described thus: Induction of CRBN-mediated degradation of human BTK C481W mutant expressed in human HeLa cells incubated for 4 days by Western blot analysis. The test is classed as cell-based. As to conditions: 96 h.
Test [7] is described as follows: Induction of CRBN-mediated degradation of human BTK C481T mutant expressed in human HeLa cells incubated for 4 days by Western blot analysis. The test is classed as cell-based. As to conditions: 96 h.
For test [8], the target named is T1, Protein cereblon/Tyrosine-protein kinase BTK. The test is described as follows: Induction of CRBN-mediated degradation of human BTK C481S mutant expressed in human HeLa cells incubated for 4 days by Western blot analysis. The test is classed as cell-based.
A short description of test [9]: Induction of CRBN-mediated degradation of human BTK C481G mutant expressed in human HeLa cells incubated for 4 days by Western blot analysis. The test is classed as cell-based. The note with it: 96 h.
Another test concerns NCI-H1975. The test is described as follows: cells. As to conditions: Homo sapiens.
The next test concerns LoVo. The test is described as follows: cells. The test is classed as functional, cell-based. As to conditions: Homo sapiens.
Test [10] in a line: Antiproliferative activity against human NCI-H3122-CR1 cells harboring ALK L1196M mutant after 72 hrs by CellTiter-Glo assay. The test is classed as functional.
Test [11] can be described thus: Antiproliferative activity against human MGH021-4 cells harboring ALK G1269A mutant after 72 hrs by CellTiter-Glo assay. The test is classed as functional. The note with it: MGH0214.
Test [12] can be described thus: Inhibition of LMNA-TRKA G595R (unknown origin) expressed in mouse Ba/F3 cells assessed as antiproliferative activity incubated for 72 hrs by CellTiter-Glo luciferase-based ATP detection assay. The note with it: BaF3, 72 h. The test is classed as cell-based.
A short description of test [13]: Inhibition of CD74-ROS1 G2032R mutant (unknown origin) expressed in mouse Ba/F3 cells assessed as antiproliferative activity incubated for 72 hrs by CellTiter-Glo luciferase-based ATP detection assay. The note with it: BaF3, 72 h. The test is classed as cell-based. (In general: Cellular ATP, detected with luciferase, serves as a proxy for viable cell number.)
For test [14], the target named is T3, Tyrosine-protein kinase BTK. The test is described as follows: Inhibition of wild type BTK (unknown origin).

As usually defined, the IC50 is the concentration needed to halve the response being measured. A word on the DC50: it is the concentration giving 50% degradation. Low values mean degradation at low concentration, high ones degradation only at high concentration. The term GI50 denotes the concentration at which growth is held to half of that of the control. A higher GI50 goes with less potent growth inhibition.

T2 sequence (Q06187 whole entry): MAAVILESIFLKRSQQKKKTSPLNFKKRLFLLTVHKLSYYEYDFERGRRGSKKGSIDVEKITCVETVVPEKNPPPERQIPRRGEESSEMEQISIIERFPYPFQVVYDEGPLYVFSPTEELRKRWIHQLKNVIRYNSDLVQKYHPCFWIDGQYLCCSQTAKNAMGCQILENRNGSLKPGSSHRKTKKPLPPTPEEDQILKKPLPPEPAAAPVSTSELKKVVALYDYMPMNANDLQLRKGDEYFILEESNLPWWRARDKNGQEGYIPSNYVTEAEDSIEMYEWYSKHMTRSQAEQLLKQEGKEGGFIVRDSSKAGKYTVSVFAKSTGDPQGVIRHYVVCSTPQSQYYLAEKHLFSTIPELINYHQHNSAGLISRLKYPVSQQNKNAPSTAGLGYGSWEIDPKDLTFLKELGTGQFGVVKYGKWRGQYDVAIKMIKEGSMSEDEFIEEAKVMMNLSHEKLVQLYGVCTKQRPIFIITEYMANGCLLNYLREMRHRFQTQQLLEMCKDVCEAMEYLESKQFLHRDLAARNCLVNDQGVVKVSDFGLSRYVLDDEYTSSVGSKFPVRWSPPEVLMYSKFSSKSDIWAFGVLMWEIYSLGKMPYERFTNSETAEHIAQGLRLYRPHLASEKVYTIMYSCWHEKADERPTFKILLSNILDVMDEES
T2 sequence (Q96SW2 whole entry): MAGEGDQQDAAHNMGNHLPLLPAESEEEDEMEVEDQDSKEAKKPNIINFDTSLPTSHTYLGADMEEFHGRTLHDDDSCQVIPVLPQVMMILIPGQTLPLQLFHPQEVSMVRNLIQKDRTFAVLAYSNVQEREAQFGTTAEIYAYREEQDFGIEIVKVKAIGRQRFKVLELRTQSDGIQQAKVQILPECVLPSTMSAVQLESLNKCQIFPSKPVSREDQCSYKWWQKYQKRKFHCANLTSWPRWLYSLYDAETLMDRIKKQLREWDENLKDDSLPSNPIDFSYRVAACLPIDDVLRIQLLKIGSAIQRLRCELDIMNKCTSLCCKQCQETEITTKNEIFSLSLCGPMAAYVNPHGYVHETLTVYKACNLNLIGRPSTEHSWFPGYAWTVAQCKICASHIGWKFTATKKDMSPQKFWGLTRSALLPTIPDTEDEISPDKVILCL
T3 sequence (Q06187 whole entry): as the sequence (Q06187 whole entry) above
T1 sequence (Q06187 2-659 C481S limits assumed, stated change not applied): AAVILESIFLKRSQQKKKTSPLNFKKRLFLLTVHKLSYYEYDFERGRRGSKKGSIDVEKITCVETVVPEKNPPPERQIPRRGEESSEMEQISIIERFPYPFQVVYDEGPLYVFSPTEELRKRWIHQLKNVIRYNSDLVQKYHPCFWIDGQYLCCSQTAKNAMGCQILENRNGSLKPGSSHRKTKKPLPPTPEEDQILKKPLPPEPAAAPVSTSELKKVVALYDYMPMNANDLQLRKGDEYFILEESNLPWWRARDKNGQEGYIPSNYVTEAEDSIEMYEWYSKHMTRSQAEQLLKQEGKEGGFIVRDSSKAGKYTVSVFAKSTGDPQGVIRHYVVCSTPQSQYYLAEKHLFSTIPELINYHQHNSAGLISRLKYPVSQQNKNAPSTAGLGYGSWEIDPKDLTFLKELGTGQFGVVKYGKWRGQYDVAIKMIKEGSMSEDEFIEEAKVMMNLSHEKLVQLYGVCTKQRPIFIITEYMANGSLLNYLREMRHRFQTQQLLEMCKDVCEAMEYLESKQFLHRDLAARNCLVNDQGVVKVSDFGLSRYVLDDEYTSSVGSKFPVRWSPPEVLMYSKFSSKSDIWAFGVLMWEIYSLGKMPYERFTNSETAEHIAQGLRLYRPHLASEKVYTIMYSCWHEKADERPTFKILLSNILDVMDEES
T1 sequence (Q96SW2 whole entry, stated change not applied): as the sequence (Q96SW2 whole entry) above

Turning to `C=CC(=O)Nc1cccc(Oc2nc(Nc3ccc(N4CCN(C)CC4)cc3OC)ncc2Cl)c1`, the IC50 in “cells” was 2130 nM.
On to `Nc1ncnc2c1c(-c1ccc(Oc3ccccc3)cc1)nn2[C@@H]1CCCN(CCOCCOCC(=O)Nc2ccc3c(c2)CN(C2CCC(=O)NC2=O)C3=O)C1` (some centres undefined), for which the half-maximal degradation concentration (DC50) in test [1] stood at 14.9 nM; in test [2] it was 14.6 nM.
`Cc1c(NC(=O)c2ccc(C(C)(C)C)cc2)cccc1-c1cn(C)c(=O)c(Nc2ccc(C(=O)N3CCN(CCCCCCNC(=O)CNc4cccc5c4C(=O)N(C4CCC(=O)NC4=O)C5=O)CC3)cc2)n1` (centres undefined) gave a half-inhibitory concentration (IC50) in [3] of 5.1 nM.
For the molecule `Nc1ncnc2c1c(-c1ccc(Oc3ccccc3)cc1)nn2[C@@H]1CCCN(C(=O)c2cn(CCOCCOCCOCCCc3ccc4c(c3)CN(C3CCC(=O)NC3=O)C4=O)nn2)C1` (some centres undefined), the DC50 in [4], in [5], in test [6], in test [7], in test [8] and in [9] was 18 nM in each case.
For the molecule `CN(C)C/C=C/C(=O)Nc1cc2c(Nc3ccc(F)c(Cl)c3)ncnc2cc1O[C@H]1CCOC1` [AFATINIB], the IC50 with NCI-H1975 was 22 nM; in the test on LoVo, 15 nM.
Consider `Cc1cc(Nc2ncc(Cl)c(Nc3ccccc3S(=O)(=O)C(C)C)n2)c(OC(C)C)cc1C1CCNCC1` [CERITINIB], for which the GI50 in test [10] was 230 nM; in test [11], 80 nM.
With `C[C@@H](Oc1cc(-c2cnn(C3CCNCC3)c2)cnc1N)c1c(Cl)ccc(F)c1Cl` [CRIZOTINIB], the GI50 was determined as 2880 nM in test [10] and 500 nM in [11].
Regarding `C[C@H]1CNC(=O)c2cnn3ccc(nc23)N[C@H](C)c2cc(F)ccc2O1` [REPOTRECTINIB], the IC50 was 0.4 nM in [12] and 3.3 nM in test [13].
`NC(=O)[C@H]1CCN(c2ncnc(N)c2F)C[C@@H]1N1CCC[C@@H](Nc2cc(Cl)cc(C(F)(F)F)c2)C1=O` [VECABRUTINIB] displayed an IC50 in [14] of 2.9 nM.
